Data published in patent US7358266B2, “Cyclopropyl and cyclobutyl epothilone analogs” (The Scripps Research Institute, priority 2001, dated 2008).
pIC50: −log10 of the molar value. “Also recorded” adds a separate entry of the source.

Tests used:
[1] = tested on: PTX10 (β270) paclitaxel-selected β-tubulin mutant clone of 1A9; experiment: 72 h growth inhibition assay (SRB), paclitaxel-selected clone PTX10; assay type: cell-based, human
Description: (§1) The biological activities of the synthesized epothilones were evaluated through cytotoxicity and tubulin polymerization assays. Cytotoxicity was first evaluated in a set of ovarian carcinoma cell lines, including a parental cell line (IA9) and three drug-resistant cell lines, namely the paclitaxel-resistant cell lines (Giannakakou, P.; et al. J. Biol. Chem. 1997, 272, 17118-17125) IA9/PTX10 and IA9/PTX22 and the epothilone-resistant cell line (Giannakakou, P.; et al. Proc. Natl. Acad. Sci. USA 2000, 97, 2904-2909) 1A9/A8. These resistant cell lines harbor distinct acquired P-tubulin mutations which affect drug-tubulin interaction and result in impaired taxane and epothilone-driven tubulin polymerization. Further cytotoxicity studies were undertaken using a set of human epidermoid cancer cell lines, including a parent cell line (KB-31), and a paclitaxel-resistant (due to P-gp overexpression) cell line (KB-8511).
(§2) IC50 values for each compound are given in nM and represent the mean of 3-5 independent experiments±standard error of the mean. Relative resistance (RR) is calculated as an IC50 value for each resistant subline divided by that for the parental cell line (1A9).^b Data from reference 3. CP=cyclopropyl, CB=cyclobutyl, na=not applicable, nd=not determined, py=5-methylpyridine side chain.

[2] = tested on: ovarian carcinoma (1A9, PTX10, PTX22, A8) and epidermoid (KB-31, KB-8511) cancer cell lines; experiment: Cytotoxicity, general statements over the cell line panel; assay type: cell-based, human; conditions: for cytotoxic activity (in words): cell line not specified or all cell lines
Description: as §1, §2
(§3) FIG. 16 is a table of tubulin polymerization potency^a and cytotoxicity^b of epothilones 1 through 12 and paclitaxel against human epidermoid cancer cell lines.^a% TP=percent tubulin polymerized after incubation of tubulin with a known concentration of compound (typically 3 μM).^b Cytotoxicity towards human cancer cell lines as IC50 values given in nM. KB-31: epidermoid Taxol®-sensitive, KB-8511: epidermoid Taxol®-resistant (due to P-gp over expression).

[3] = tested on: tubulin; experiment: In vitro tubulin polymerization, fraction of tubulin polymerized (% TP); assay type: biochemical
Description: (§4) The cytotoxicity analysis was supplemented with data from two independent in vitro tubulin polymerization assays. In one assay, the fraction of tubulin polymerized into microtubules upon exposure to a given concentration of the respective compound was determined (see Table 2). In the other assay, tubulin polymerization kinetics upon exposure to the respective compounds was determined using purified rat brain tubulin through measurement of the absorbance at 350 nm (see FIG. 3). For this analysis, paclitaxel, epothilone A (1) and epothilone B (2) were used as controls while compounds 9, 11 and 12 were selected for in vitro analysis.
as §3

[4] = tested on: A8 (β274) epothilone-selected β-tubulin mutant clone of 1A9; experiment: 72 h growth inhibition assay (SRB), epothilone-selected clone A8; assay type: cell-based, human
Description: as §1, §2

[5] = tested on: purified rat brain tubulin; experiment: Tubulin polymerization kinetics, absorbance at 350 nm; assay type: biochemical; conditions: for in vitro tubulin polymerization activity (in words) / maximum degree of tubulin polymerization compared with epothilone A (1): A350
Description: as §4

[6] = tested on: 1A9 human ovarian carcinoma cells; experiment: 72 h growth inhibition assay (SRB), parental 1A9 cells; assay type: cell-based
Description: as §1, §2

[7] = tested on: KB-31 human epidermoid cancer cell line (Taxol-sensitive); experiment: Cytotoxicity against human epidermoid cancer cell line KB-31; assay type: cell-based; conditions: parental sensitive KB-31 cells; 3 compared with epothilone A (1)
Description: as §1, §3

[8] = tested on: PTX22 (β364) paclitaxel-selected β-tubulin mutant clone of 1A9; experiment: 72 h growth inhibition assay (SRB), paclitaxel-selected clone PTX22; assay type: cell-based; conditions: Homo sapiens, read-out: IC50 against PTX22
Description: as §1, §2

Row | Molecule | activity against clone PTX10 versus parental line (in words) [1] | cytotoxic activity (in words) [2] | tubulin polymerization promotion (in words) [3] | activity against clone A8 versus parental line (in words) [4] | time to A350=0.25 ([5]; polymerization kinetics) | inhibition of 1A9 cell growth (in words) ([6]; parental sensitive 1A9 cells, 3 compared with epothilone A (1)) | inhibition of KB-31 cell growth (in words) [7] | factor less active than 11 ([2]; cytotoxicity relative to analog 11) | in vitro tubulin polymerization activity (in words) [5] | maximum degree of tubulin polymerization compared with epothilone A (1) [5] | pIC50 ([1]; Homo sapiens, 72 h, SRB, read-out: IC50 against PTX10) | pIC50 [8] | pIC50 ([6]; Homo sapiens, Ovarian carcinoma cell, 1A9, 72 h, SRB, read-out: IC50 in the 1A9 human ovarian carcinoma cell line) | pIC50 ([4]; Homo sapiens, 72 h, SRB, read-out: IC50 against A8)
1 | 15S-cyclobutyl epothilone A [Compound 4] | lose some activity | retains good activity; also recorded: cytotoxic agents | potent tubulin polymerization promoters | lose some activity |  |  |  |  |  |  |  |  |  | 
2 | C/C(=C\c1csc(C)n1)[C@@H]1C[C@@H]2O[C@@H]2CCC[C@H](C)[C@H](O)[C@@H](C)C(=O)C(C)(C)[C@@H](O)CC(=O)O1 [Compound 1, epothilone A] |  |  |  |  | 2 min |  |  |  |  |  |  |  |  | 
3 | C/C(=C\c1csc(C)n1)[C@@H]1C[C@@H]2C[C@@H]2CCC[C@H](C)[C@H](O)[C@@H](C)C(=O)C(C)(C)[C@@H](O)CC(=O)O1 [Compound 3, cyclopropyl epothilone A] | lose some activity | cytotoxic agents | potent tubulin polymerization promoters | lose some activity |  | slightly more potently | slightly more potently |  |  |  |  |  |  | 
4 | C/C(=C\c1ccc(C)cn1)[C@@H]1C[C@@H]2C[C@@H]2CCC[C@H](C)[C@H](O)[C@@H](C)C(=O)C(C)(C)[C@@H](O)CC(=O)O1 [Compound 9] | lose some activity | highly active; also recorded: increased cytotoxic activity; also recorded: cytotoxic agents | potent tubulin polymerization promoters | lose some activity |  |  |  | three to five | good in vitro activity | smaller |  |  |  | 
5 | C/C(=C\c1ccc(C)cn1)[C@@H]1C[C@@H]2C[C@H]2CCC[C@H](C)[C@H](O)[C@@H](C)C(=O)C(C)(C)[C@@H](O)CC(=O)O1 [Compound 11, (12R, 13S, 15S)-cyclopropyl 5-methylpyridine epothilone A] | lose some activity | outstanding activity; also recorded: increased cytotoxic activity; also recorded: cytotoxic agents | potent tubulin polymerization promoters | lose some activity |  |  |  |  | good in vitro activity | smaller | > 8.00 | > 8.00 | 9.22 | > 8.00
